Here are results for one compound from US4946668A, “Tumor imaging with technetium labelled glucarate” (Centocor, Inc., priority 1988, dated 1990).

The data set concerns colorectal carcinoma (HT-29 cells). The data set can be described thus: Detection of colorectal carcinoma (HT-29 xenograft): scintigraphic imaging and uptake of radioactivity. Type of data set: in vivo, female athymic nude mice. The protocol: Colorectal carcinoma was produced in female athymic nude mice by injecting subcutaneously 1×10^7 HT-29 cells (M.D. Anderson Hospital and Tumor Institute Houston, Tex.) per mouse in the hind limb. After 4 weeks, tumor bearing mice (2 per group) were injected intravenously with either sodium per-technetate (TcO4^-) or Tc-99m-glucarate (approximately350 uCi/mouse). […] After imaging at the last time point, animals were killed, tumors and organs were weighed and quantitated for the distribution of radioactivity.

Where [1] appears, read: 22 hours, approximately 350 uCi/mouse i.v.

On to `[Na+].[O]=[Tc](=[O])(=[O])[O-]` [TcO4^-, sodium pertechnetate], for which, under setting [1], the “% ID/gm at tumor site” value came to 0.29 ± 0.00 % ID/gm, the tumor/blood was 2.08 ± 0.21 and the tumor/muscle was 12.08 ± 3.41. For the same compound, where the note is “images at 3, 5 and 24 hours”, the tumor visualization entry was “no tumor visualization was detected”. Moreover, the “uptake of radioactivity seen in scintigraphic images” value (images at 3, 5 and 24 hours after injection) was “nonspecific uptake of radioactivity at the thyroid and stomach”.
